Laboratory results: ChEMBL document CHEMBL1201862, “PubChem BioAssay data set” (2004)
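All cell lines were grown in 96-well plates and treated with compound for 48 hours. GI50 marks 50% less growth.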 Active and inactive are the calls of the source. Rule as the data show it: active = GI50 up to about 1.1 µM and inactive = higher.

Assays:
Assay in all cases: DTP human tumour cell line panel, 48 h
MOLT-4 = system: MOLT-4
MDA-MB-231 = system: MDA-MB-231
SF-268 = system: SF-268
786-0 = system: 786-0
HOP-62 = system: HOP-62
RXF 393 = system: RXF 393
SK-MEL-5 = system: SK-MEL-5
OVCAR-8 = system: OVCAR-8
IGROV-1 = system: IGROV-1
SF-539 = system: SF-539
TK-10 = system: TK-10
Hs-578T = system: Hs-578T
SNB-75 = system: SNB-75
RPMI-8226 = system: RPMI-8226
ACHN = system: ACHN
MDA-MB-435 = system: MDA-MB-435
SNB-19 = system: SNB-19
HOP-18 = system: HOP-18
MCF7 = system: MCF7
U-251 = system: U-251
UACC-62 = system: UACC-62
M19-MEL = system: M19-MEL
RXF 631 = system: RXF 631
HCT-116 = system: HCT-116
OVCAR-4 = system: OVCAR-4
NCI-H23 = system: NCI-H23
NCI-H460 = system: NCI-H460
SK-MEL-28 = system: SK-MEL-28
DMS-114 = system: DMS-114
K562 = system: K562
SNB-78 = system: SNB-78
EKVX = system: EKVX
NCI/ADR-RES = system: NCI/ADR-RES
DU-145 = system: DU-145
HCC 2998 = system: HCC 2998
XF498 = system: XF498
SW-620 = system: SW-620
KM-20L2 = system: KM-20L2
UACC-257 = system: UACC-257
SF-295 = system: SF-295
SK-MEL-2 = system: SK-MEL-2
NCI-H226 = system: NCI-H226
T47D = system: T47D
LOX IMVI = system: LOX IMVI
HOP-92 = system: HOP-92
KM12 = system: KM12
A498 = system: A498
DLD-1 = system: DLD-1
UO-31 = system: UO-31
LXFL 529 = system: LXFL 529
MDA-N = system: MDA-N
CCRF-CEM = system: CCRF-CEM
BT-549 = system: BT-549
HCT-15 = system: HCT-15
PC-3 = system: PC-3
DMS-273 = system: DMS-273
HT-29 = system: HT-29
CAKI-1 = system: CAKI-1
M14 = system: M14
COLO 205 = system: COLO 205
SR = system: SR
SN12C = system: SN12C
NCI-H522 = system: NCI-H522
Malme-3M = system: Malme-3M
SK-OV-3 = system: SK-OV-3
HL-60 = system: HL-60
OVCAR-3 = system: OVCAR-3
A549 = system: A549
OVCAR-5 = system: OVCAR-5

CNC(=O)/C(=C/c1ccc(OC)cc1)c1cc(OC)c(OC)c(OC)c1
GI50 (MOLT-4): 2.33 µM (inactive)
GI50 (MDA-MB-231): 6.14 µM (inactive)
GI50 (SF-268): 4.83 µM (inactive)
GI50 (786-0): 3.47 µM (inactive)
GI50 (HOP-62): 2.27 µM (inactive)
GI50 (RXF 393): 1.99 µM (inactive)
GI50 (SK-MEL-5): 593 nM (active)
GI50 (OVCAR-8): 4.12 µM (inactive)
GI50 (IGROV-1): 4.76 µM (inactive)
GI50 (SF-539): 1.34 µM (inactive)
GI50 (TK-10): > 44.1 µM (inactive)
GI50 (Hs-578T): 1.61 µM (inactive)
GI50 (SNB-75): 1.14 µM (inactive)
GI50 (RPMI-8226): 2.99 µM (inactive)
GI50 (ACHN): 8.65 µM (inactive)
GI50 (MDA-MB-435): 281 nM (active)
GI50 (SNB-19): 4.58 µM (inactive)
GI50 (HOP-18): > 71.1 µM (inactive)
GI50 (MCF7): 769 nM (active)
GI50 (U-251): 2.81 µM (inactive)
GI50 (UACC-62): 670 nM (active)
GI50 (M19-MEL): 1.74 µM (inactive)
GI50 (RXF 631): 7.45 µM (inactive)
GI50 (HCT-116): 1.55 µM (inactive)
GI50 (OVCAR-4): 21.3 µM (inactive)
GI50 (NCI-H23): 3.52 µM (inactive)
GI50 (NCI-H460): 1.47 µM (inactive)
GI50 (SK-MEL-28): 2.77 µM (inactive)
GI50 (DMS-114): 2.3 µM (inactive)
GI50 (K562): 546 nM (active)
GI50 (SNB-78): 4.94 µM (inactive)
GI50 (EKVX): 10.1 µM (inactive)
GI50 (NCI/ADR-RES): 1.98 µM (inactive)
GI50 (DU-145): 2.74 µM (inactive)
GI50 (HCC 2998): 2.45 µM (inactive)
GI50 (XF498): 4.95 µM (inactive)
GI50 (SW-620): 802 nM (active)
GI50 (KM-20L2): 1.28 µM (inactive)
GI50 (UACC-257): 5.08 µM (inactive)
GI50 (SF-295): 552 nM (active)
GI50 (SK-MEL-2): 3.89 µM (inactive)
GI50 (NCI-H226): 10.3 µM (inactive)
GI50 (T47D): > 100 µM (inactive)
GI50 (LOX IMVI): 4.88 µM (inactive)
GI50 (HOP-92): 13.9 µM (inactive)
GI50 (KM12): 598 nM (active)
GI50 (A498): 3.51 µM (inactive)
GI50 (DLD-1): 2.25 µM (inactive)
GI50 (UO-31): 6.44 µM (inactive)
GI50 (LXFL 529): 4.43 µM (inactive)
GI50 (MDA-N): 206 nM (active)
GI50 (CCRF-CEM): 2.32 µM (inactive)
GI50 (BT-549): 50.8 µM (inactive)
GI50 (HCT-15): 743 nM
GI50 (PC-3): 1.03 µM (active)
GI50 (DMS-273): 516 nM (active)
GI50 (HT-29): 593 nM (active)
GI50 (CAKI-1): 2.47 µM (inactive)
GI50 (M14): 1.45 µM (inactive)
GI50 (COLO 205): 1.16 µM (inactive)
GI50 (SR): 513 nM (active)
GI50 (SN12C): 5.2 µM (inactive)
GI50 (NCI-H522): 735 nM (active)
GI50 (Malme-3M): 887 nM (active)
GI50 (SK-OV-3): 1.6 µM (inactive)
GI50 (HL-60): 493 nM (active)
GI50 (OVCAR-3): 641 nM (active)
GI50 (A549): 1.69 µM (inactive)
GI50 (OVCAR-5): 20.7 µM (inactive)
